Measurements as given in patent US20250170141A1, “MRGPRX2 MODULATORS AND RELATED METHODS OF TREATMENT” (Escient Pharmaceuticals, Inc., priority 2023, published 2025).

biological target: T1, human MRGPRX2 (Homo sapiens, UniProt Q96LB1); assay: MRGPRX2 activity: IP-One Gq HTRF assay in CHO cells, antagonism versus 0.3 uM Cortistatin-14; assay type: cell-based; settings: versus 0.3 uM Cortistatin-14 agonist, CHO cells expressing human MRGPRX2, read-out: MRGPRX2 Antagonist Activity
T1 construct: expressed in transfected cells; host or cells: CHO cells, stably transfected (G418 and Hygromycin B selection)
T1 sequence (Q96LB1 1-330): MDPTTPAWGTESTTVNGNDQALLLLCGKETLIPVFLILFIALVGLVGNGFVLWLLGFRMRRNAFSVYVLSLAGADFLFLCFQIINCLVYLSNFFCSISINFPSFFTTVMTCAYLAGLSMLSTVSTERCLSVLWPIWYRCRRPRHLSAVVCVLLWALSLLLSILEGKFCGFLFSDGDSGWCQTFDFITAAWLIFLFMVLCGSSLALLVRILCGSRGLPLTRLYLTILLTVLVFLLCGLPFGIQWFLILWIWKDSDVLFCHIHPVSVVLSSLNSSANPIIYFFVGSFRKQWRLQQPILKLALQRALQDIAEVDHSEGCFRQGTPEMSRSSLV
Procedure, shortened: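 Antagonist IC50 was derived from the HTRF IP-1 signal after co-addition of compounds (10 points, top 30 uM, 3-fold steps) and 0.3 μM Cortistatin-14 agonist to human MRGPRX2-expressing CHO cells. Assay buffer contained 50 mM LiCl, pH 8; plates sat 1 h at 37 °C, then 1 h at room temperature.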

Structure (SMILES)	IC50
CC(c1ccccc1)c1c(F)ccc2c1NC(NCc1cccc(F)c1)=NS2(=O)=O (centres unmarked) [Compound 22-1, 6-fluoro-3-((3-fluorobenzyl)amino)-5-(1-phenylethyl)-4H-benzo[e][1,2,4]thiadiazine 1,1-dioxide]	< 100 nM
O=C(c1ccccc1Cl)c1cccc2c1NC(NCc1ccccc1F)=NS2(=O)=O [Compound 16-2, (2-chlorophenyl)(3-((2-fluorobenzyl)amino)-1,1-dioxido-4H-benzo[e][1,2,4]thiadiazin-5-yl)methanone]	< 100 nM
CC(c1ccc(Oc2ccccc2)cc1)c1c(F)ccc2c1NC(NCc1cccc(F)c1)=NS2(=O)=O (centres unmarked) [Compound 22-15, 6-fluoro-3-((3-fluorobenzyl)amino)-5-(1-(4-phenoxyphenyl)ethyl)-4H-benzo[e][1,2,4]thiadiazine 1,1-dioxide]	501 to 1000 nM
O=S1(=O)N=C(NCc2ccccc2F)Nc2c(Cc3c(Cl)cccc3Cl)cccc21 [Compound 6-5, 5-(2,6-dichlorobenzyl)-3-((2-fluorobenzyl)amino)-4H-benzo[e][1,2,4]thiadiazine 1,1-dioxide]	< 100 nM
COc1ccc(C(C)c2c(F)ccc3c2NC(NCc2cccc(F)c2)=NS3(=O)=O)c(F)c1 (centres unmarked) [Compound 22-7, 6-fluoro-5-(1-(2-fluoro-4-methoxyphenyl)ethyl)-3-((3-fluorobenzyl)amino)-4H-benzo[e][1,2,4]thiadiazine 1,1-dioxide]	< 100 nM
O=S1(=O)N=C(NCc2ccc(F)cc2F)Nc2c1cc(F)c(F)c2Cc1ccccc1Cl [Compound 4-8, 5-(2-chlorobenzyl)-3-((2,4-difluorobenzyl)amino)-6,7-difluoro-4H-benzo[e][1,2,4]thiadiazine 1,1-dioxide]	100 to 500 nM
O=S1(=O)N=C(NCc2cc(F)ccc2F)Nc2c1cc(F)c(F)c2Cc1ccccc1Cl [Compound 4-10, 5-(2-chlorobenzyl)-3-((2,5-difluorobenzyl)amino)-6,7-difluoro-4H-benzo[e][1,2,4]thiadiazine 1,1-dioxide]	100 to 500 nM
CC(c1c(F)ccc2c1NC(NCc1cccc(F)c1)=NS2(=O)=O)C1CCCCC1 (centres unmarked) [Compound 22-5, 5-(1-cyclohexylethyl)-6-fluoro-3-((3-fluorobenzyl)amino)-4H-benzo[e][1,2,4]thiadiazine 1,1-dioxide]	< 100 nM
O=S1(=O)N=C(NCc2cccnc2C(F)(F)F)Nc2c(Cc3ccccc3Cl)cccc21 [Compound 12-31, 5-(2-chlorobenzyl)-3-(((2-(trifluoromethyl)pyridin-3-yl)methyl)amino)-4H-benzo[e][1,2,4]thiadiazine 1,1-dioxide]	< 100 nM
O=S1(=O)N=C(Nc2ccc(F)cc2)Nc2c1cc(F)c(F)c2Cc1ccccc1Cl [Compound 4-19, 5-(2-chlorobenzyl)-6,7-difluoro-3-((4-fluorophenyl)amino)-4H-benzo[e][1,2,4]thiadiazine 1,1-dioxide]	501 to 1000 nM
O=S1(=O)N=C(NCc2cccc(F)c2)Nc2c1ccc(F)c2Oc1ccccc1Cl [Compound 1-11, 5-(2-chlorophenoxy)-6-fluoro-3-((3-fluorobenzyl)amino)-4H-benzo[e][1,2,4]thiadiazine 1,1-dioxide]	< 100 nM
CC(c1ccccc1F)c1c(F)ccc2c1NC(NCc1cccc(F)c1)=NS2(=O)=O (centres unmarked) [Compound 9-4, 6-fluoro-3-((3-fluorobenzyl)amino)-5-(1-(2-fluorophenyl)ethyl)-4H-benzo[e][1,2,4]thiadiazine 1,1-dioxide]	< 100 nM
O=S1(=O)N=C(NCc2ccccc2F)Nc2c(Cc3ccc(Cl)cc3)cccc21 [Compound 6-13, 5-(4-chlorobenzyl)-3-((2-fluorobenzyl)amino)-4H-benzo[e][1,2,4]thiadiazine 1,1-dioxide]	100 to 500 nM

Now from value to molecule:

IC50	Structure (SMILES)
< 100 nM	Cc1ccccc1C(C)c1c(F)ccc2c1NC(NCc1cccc(F)c1)=NS2(=O)=O (centres unmarked) [Compound 22-2, 6-fluoro-3-((3-fluorobenzyl)amino)-5-(1-(o-tolyl)ethyl)-4H-benzo[e][1,2,4]thiadiazine 1,1-dioxide]
< 100 nM	O=S1(=O)N=C(NCc2ncccc2Cl)Nc2c(/C=C/c3ccccc3F)cccc21 [Compound 14-1, (E)-3-(((3-chloropyridin-2-yl)methyl)amino)-5-(2-fluorostyryl)-4H-benzo[e][1,2,4]thiadiazine 1,1-dioxide]
100 to 500 nM	O=S1(=O)N=C(NCc2ncccc2F)Nc2c1ccc(F)c2Oc1cccc(F)c1F [Compound 1-40, 5-(2,3-difluorophenoxy)-6-fluoro-3-(((3-fluoropyridin-2-yl)methyl)amino)-4H-benzo[e][1,2,4]thiadiazine 1,1-dioxide]
< 100 nM	Cc1cccnc1CNC1=NS(=O)(=O)c2cccc(Cc3ccccc3Cl)c2N1 [Compound 12-21, 5-(2-chlorobenzyl)-3-(((3-methylpyridin-2-yl)methyl)amino)-4H-benzo[e][1,2,4]thiadiazine 1,1-dioxide]
< 100 nM	CC(c1ccccc1F)c1c(F)c(F)cc2c1NC(NCc1ncccc1F)=NS2(=O)=O (centres unmarked) [Compound 9-7, 6,7-difluoro-5-(1-(2-fluorophenyl)ethyl)-3-(((3-fluoropyridin-2-yl)methyl)amino)-4H-benzo[e][1,2,4]thiadiazine 1,1-dioxide]
100 to 500 nM	CC(c1ccccc1F)c1c(F)ccc2c1NC(NCc1cccnc1)=NS2(=O)=O (centres unmarked) [Compound 7-3, 6-fluoro-5-(1-(2-fluorophenyl)ethyl)-3-((pyridin-3-ylmethyl)amino)-4H-benzo[e][1,2,4]thiadiazine 1,1-dioxide]
< 100 nM	C=C(c1ccccc1F)c1c(F)ccc2c1NC(NCc1ncccc1F)=NS2(=O)=O [Compound 13-3, 6-fluoro-5-(1-(2-fluorophenyl)vinyl)-3-(((3-fluoropyridin-2-yl)methyl)amino)-4H-benzo[e][1,2,4]thiadiazine 1,1-dioxide]
< 100 nM	O=S1(=O)N=C(NCc2ccccc2F)Nc2c1ccc(F)c2Oc1ccccc1Cl [Compound 1-2, 5-(2-chlorophenoxy)-6-fluoro-3-((2-fluorobenzyl)amino)-4H-benzo[e][1,2,4]thiadiazine 1,1-dioxide]
> 2500 nM	O=S1(=O)N=C(NCc2ncccc2O)Nc2c1ccc(F)c2Oc1ccccc1Cl [Compound 1-37, 5-(2-chlorophenoxy)-6-fluoro-3-(((3-hydroxypyridin-2-yl)methyl)amino)-4H-benzo[e][1,2,4]thiadiazine 1,1-dioxide]
< 100 nM	O=S1(=O)N=C(NCc2cccc(F)n2)Nc2c1ccc(F)c2Oc1ccccc1Cl [Compound 2-4, 5-(2-chlorophenoxy)-6-fluoro-3-(((6-fluoropyridin-2-yl)methyl)amino)-4H-benzo[e][1,2,4]thiadiazine 1,1-dioxide]
100 to 500 nM	O=S1(=O)N=C(NCc2cccnc2F)Nc2c1ccc(F)c2Oc1ccccc1Cl [Compound 2-5, 5-(2-chlorophenoxy)-6-fluoro-3-(((2-fluoropyridin-3-yl)methyl)amino)-4H-benzo[e][1,2,4]thiadiazine 1,1-dioxide]
< 100 nM	Cc1cccc(C)c1Cc1c(F)ccc2c1NC(NCc1ncccc1F)=NS2(=O)=O [Compound 5-1, 5-(2,6-dimethylbenzyl)-6-fluoro-3-(((3-fluoropyridin-2-yl)methyl)amino)-4H-benzo[e][1,2,4]thiadiazine 1,1-dioxide]
< 100 nM	O=S1(=O)N=C(NCc2ncccc2F)Nc2c(/C=C/c3ccccc3F)cccc21 [Compound 14-3, (E)-3-(((3-fluoropyridin-2-yl)methyl)amino)-5-(2-fluorostyryl)-4H-benzo[e][1,2,4]thiadiazine 1,1-dioxide]
